Tests used:
[1] = Drug stabilization effect (photostabilizer, sunlight exposure); set-up: key to Sunlight exposure (80 MJ) Appearance: A: No change; B: No almost change; C: Yes change; conditions: photostabilizer 0.05, amounts wt %
Description: Next, the photo stabilization effect and changes in appearance in drug compositions were studied according to the following evaluation formulation.
Each test sample was prepared. Appearance changes of the samples exposed to sunlight (80 MJ) was observed (visual evaluation). Also, residual yield was measured by liquid chromatography.

[2] = Colorant stabilization effect (photostabilizer, sunlight exposure); set-up: key to Sunlight exposure (80 MJ) Appearance: A: No change; B: No almost change; C: Yes change; key to Sunlight exposure (80 MJ) ΔE: ΔE color difference (Lab) vs. color before sunlight exposure; conditions: photostabilizer 0.05 wt %
Description: First of all, the photostabilization effect and appearance change of a composition in each pigment were studied by the following evaluation formulation.
Each test sample was prepared. Observation of appearance change (visual evaluation) and measurement of color difference (ΔE) were carried out in samples exposed to sunlight exposure (around 80 MJ).
Color difference was measured by Lab coordinate system with spectrophotometer. Color difference was calculated on the basis of the color before sunlight exposure. Namely, from measured value (L1,a1,b1) before sunlight exposure, color difference (ΔE) was calculated by following formula.

[3] = Perfume stabilization effect (photostabilizer, sunlight exposure, judgement by perfumier); set-up: key to Sunlight exposure (80 MJ) Smell evaluation / Sunlight exposure (80 MJ) evaluation: A: No change; B: No almost change; C: Yes change
Description: Next, the photostabilization effect for each perfume was studied by the following evaluation formulation.
Each test sample was prepared. Change of smell of sample exposed to sunlight (80 MJ) was observed (judgement by perfumier).

[4] = drug 2-o-α-α-glucopyranosyl-L-ascorbic acid 2.0
[5] = drug Dibutylhydroxytoluene 0.01
[6] = drug Dipotassium glycyrrhizinate 0.05
[7] = drug L-ascorbic acid 2-(dl-α-tocopheryl hydrogen phosphate) potassium salt 0.01
[8] = Red No. 106 0.00001 wt % + Yellow No. 5 0.0001 wt %
[9] = Red No. 106 0.00001 wt % + Yellow No. 203 0.0001 wt %
[10] = Red No. 213 0.00001 wt % + Blue No. 1 0.00001 wt %
[11] = Red No. 227 0.0001 wt % + Yellow No. 5 0.0001 wt %
[12] = Red No. 227 0.0001 wt % + Yellow No. 203 0.0001 wt %
[13] = Red No. 401 0.0001 wt % + Blue No. 1 0.00001 wt %
[14] = Red No. 401 0.0001 wt % + Green No. 3 0.00001 wt %
[15] = Yellow No. 203 0.0001 wt % + Yellow No. 5 0.0001 wt %
[16] = Base perfume Fruity 0.03 wt %, photostabilizer 0.1 wt %
[17] = Base perfume Muguet 0.03 wt %, photostabilizer 0.05 wt %
[18] = Base perfume Rose 0.03 wt %, photostabilizer 0.05 wt %
[19] = Base perfume Spicy 0.03 wt %, photostabilizer 0.2 wt %
[20] = Base perfume Woody 0.03 wt %, photostabilizer 0.1 wt %
[21] = Natural perfume Jasmine oil 0.03 wt %, photostabilizer 0.05 wt %
[22] = Natural perfume Lavender oil 0.03 wt %, photostabilizer 0.1 wt %
[23] = Natural perfume Neroli oil 0.03 wt %, photostabilizer 0.1 wt %
[24] = Natural perfume Rose oil 0.03 wt %, photostabilizer 0.05 wt %
[25] = Natural perfume Ylang ylang oil 0.03 wt %, photostabilizer 0.2 wt %
[26] = Synthetic perfume Citral 0.03 wt %, photostabilizer 0.1 wt %
[27] = Synthetic perfume Limonene 0.03 wt %, photostabilizer 0.05 wt %
[28] = Synthetic perfume Linalool 0.03 wt %, photostabilizer 0.05 wt %
[29] = Synthetic perfume Linalyl acetate 0.03 wt %, photostabilizer 0.1 wt %
[30] = Synthetic perfume Rose oxide 0.03 wt %, photostabilizer 0.2 wt %

COc1ccc(C(=O)c2ccccc2)c(O)c1 [2-Hydroxy-4-methoxybenzophenone, reference compound]
Sunlight exposure (80 MJ) Appearance [1, 4]: B
Sunlight exposure (80 MJ) Residual yield [%] [1, 4]: 97.3%
Sunlight exposure (80 MJ) Appearance [1, 5]: B
Sunlight exposure (80 MJ) Residual yield [%] [1, 5]: 95.2%
Sunlight exposure (80 MJ) Appearance [1, 6]: B
Sunlight exposure (80 MJ) Residual yield [%] [1, 6]: 97.8%
Sunlight exposure (80 MJ) Appearance [1, 7]: B
Sunlight exposure (80 MJ) Residual yield [%] [1, 7]: 95.4%
Sunlight exposure (80 MJ) Appearance ([1]; drug Salicylic acid 0.1): B
Sunlight exposure (80 MJ) Residual yield [%] ([1]; drug Salicylic acid 0.1): 98.2%
Sunlight exposure (80 MJ) Appearance ([2]; Blue No. 1 0.0001 wt %): B
Sunlight exposure (80 MJ) ΔE ([2]; Blue No. 1 0.0001 wt %): 1.76
Sunlight exposure (80 MJ) Appearance ([2]; Green No. 3 0.0001 wt %): B
Sunlight exposure (80 MJ) ΔE ([2]; Green No. 3 0.0001 wt %): 0.75
Sunlight exposure (80 MJ) Appearance [2, 8]: B
Sunlight exposure (80 MJ) ΔE [2, 8]: 1.18
Sunlight exposure (80 MJ) Appearance [2, 9]: B
Sunlight exposure (80 MJ) ΔE [2, 9]: 1.11
Sunlight exposure (80 MJ) Appearance ([2]; Red No. 106 0.0001 wt %): B
Sunlight exposure (80 MJ) ΔE ([2]; Red No. 106 0.0001 wt %): 1.01
Sunlight exposure (80 MJ) Appearance [2, 10]: B
Sunlight exposure (80 MJ) ΔE [2, 10]: 1.26
Sunlight exposure (80 MJ) Appearance ([2]; Red No. 213 0.0001 wt %): B
Sunlight exposure (80 MJ) ΔE ([2]; Red No. 213 0.0001 wt %): 1.34
Sunlight exposure (80 MJ) Appearance [2, 11]: B
Sunlight exposure (80 MJ) ΔE [2, 11]: 0.88
Sunlight exposure (80 MJ) Appearance [2, 12]: B
Sunlight exposure (80 MJ) ΔE [2, 12]: 1.05
Sunlight exposure (80 MJ) Appearance ([2]; Red No. 227 0.0001 wt %): B
Sunlight exposure (80 MJ) ΔE ([2]; Red No. 227 0.0001 wt %): 0.71
Sunlight exposure (80 MJ) Appearance [2, 13]: B
Sunlight exposure (80 MJ) ΔE [2, 13]: 0.82
Sunlight exposure (80 MJ) Appearance [2, 14]: B
Sunlight exposure (80 MJ) ΔE [2, 14]: 1.06
Sunlight exposure (80 MJ) Appearance ([2]; Red No. 401 0.001 wt %): B
Sunlight exposure (80 MJ) ΔE ([2]; Red No. 401 0.001 wt %): 1.18
Sunlight exposure (80 MJ) Appearance ([2]; Yellow No. 5 0.001 wt %): B
Sunlight exposure (80 MJ) ΔE ([2]; Yellow No. 5 0.001 wt %): 0.82
Sunlight exposure (80 MJ) Appearance [2, 15]: A
Sunlight exposure (80 MJ) ΔE [2, 15]: 0.52
Sunlight exposure (80 MJ) Appearance ([2]; Yellow No. 203 0.001 wt %): B
Sunlight exposure (80 MJ) ΔE ([2]; Yellow No. 203 0.001 wt %): 0.88
Sunlight exposure (80 MJ) Smell evaluation [3, 16]: B
Sunlight exposure (80 MJ) Smell evaluation [3, 17]: B
Sunlight exposure (80 MJ) Smell evaluation [3, 18]: B
Sunlight exposure (80 MJ) Smell evaluation [3, 19]: B
Sunlight exposure (80 MJ) Smell evaluation [3, 20]: B
Sunlight exposure (80 MJ) Smell evaluation [3, 21]: B
Sunlight exposure (80 MJ) Smell evaluation [3, 22]: B
Sunlight exposure (80 MJ) Smell evaluation [3, 23]: B
Sunlight exposure (80 MJ) Smell evaluation [3, 24]: B
Sunlight exposure (80 MJ) Smell evaluation [3, 25]: B
Sunlight exposure (80 MJ) Smell evaluation [3, 26]: B
Sunlight exposure (80 MJ) Smell evaluation [3, 27]: B
Sunlight exposure (80 MJ) Smell evaluation [3, 28]: B
Sunlight exposure (80 MJ) Smell evaluation [3, 29]: B
Sunlight exposure (80 MJ) Smell evaluation [3, 30]: B

COc1cc(O)c(C(=O)c2ccccc2)cc1S(=O)(=O)[O-].[Na+] [2-Hydroxy-4-methoxybenzophenone-5-sodium sulfonate, reference compound]
Sunlight exposure (80 MJ) Appearance [1, 4]: B
Sunlight exposure (80 MJ) Residual yield [%] [1, 4]: 97.8%
Sunlight exposure (80 MJ) Appearance [1, 5]: B
Sunlight exposure (80 MJ) Residual yield [%] [1, 5]: 94.8%
Sunlight exposure (80 MJ) Appearance [1, 6]: B
Sunlight exposure (80 MJ) Residual yield [%] [1, 6]: 97.5%
Sunlight exposure (80 MJ) Appearance [1, 7]: B
Sunlight exposure (80 MJ) Residual yield [%] [1, 7]: 95.0%
Sunlight exposure (80 MJ) Appearance ([1]; drug Salicylic acid 0.1): B
Sunlight exposure (80 MJ) Residual yield [%] ([1]; drug Salicylic acid 0.1): 98.0%
Sunlight exposure (80 MJ) Appearance ([2]; Blue No. 1 0.0001 wt %): B
Sunlight exposure (80 MJ) ΔE ([2]; Blue No. 1 0.0001 wt %): 1.67
Sunlight exposure (80 MJ) Appearance ([2]; Green No. 3 0.0001 wt %): B
Sunlight exposure (80 MJ) ΔE ([2]; Green No. 3 0.0001 wt %): 0.74
Sunlight exposure (80 MJ) Appearance ([2]; Red No. 106 0.0001 wt %): B
Sunlight exposure (80 MJ) ΔE ([2]; Red No. 106 0.0001 wt %): 0.98
Sunlight exposure (80 MJ) Appearance ([2]; Red No. 213 0.0001 wt %): B
Sunlight exposure (80 MJ) ΔE ([2]; Red No. 213 0.0001 wt %): 1.28
Sunlight exposure (80 MJ) Appearance ([2]; Red No. 227 0.0001 wt %): B
Sunlight exposure (80 MJ) ΔE ([2]; Red No. 227 0.0001 wt %): 0.80
Sunlight exposure (80 MJ) Appearance ([2]; Red No. 401 0.001 wt %): B
Sunlight exposure (80 MJ) ΔE ([2]; Red No. 401 0.001 wt %): 1.39
Sunlight exposure (80 MJ) Appearance ([2]; Yellow No. 5 0.001 wt %): B
Sunlight exposure (80 MJ) ΔE ([2]; Yellow No. 5 0.001 wt %): 0.78
Sunlight exposure (80 MJ) Appearance ([2]; Yellow No. 203 0.001 wt %): B
Sunlight exposure (80 MJ) ΔE ([2]; Yellow No. 203 0.001 wt %): 0.76
Sunlight exposure (80 MJ) Smell evaluation [3, 16]: B
Sunlight exposure (80 MJ) Smell evaluation [3, 17]: B
Sunlight exposure (80 MJ) Smell evaluation [3, 18]: B
Sunlight exposure (80 MJ) Smell evaluation [3, 19]: B
Sunlight exposure (80 MJ) Smell evaluation [3, 20]: B
Sunlight exposure (80 MJ) Smell evaluation [3, 21]: B
Sunlight exposure (80 MJ) Smell evaluation [3, 22]: B
Sunlight exposure (80 MJ) Smell evaluation [3, 23]: B
Sunlight exposure (80 MJ) Smell evaluation [3, 24]: B
Sunlight exposure (80 MJ) Smell evaluation [3, 25]: B
Sunlight exposure (80 MJ) Smell evaluation [3, 26]: B
Sunlight exposure (80 MJ) Smell evaluation [3, 27]: B
Sunlight exposure (80 MJ) Smell evaluation [3, 28]: B
Sunlight exposure (80 MJ) Smell evaluation [3, 29]: B
Sunlight exposure (80 MJ) Smell evaluation [3, 30]: B
